Key:
wheat = conditions: 200 μM instead of the usual 100 μM; cited from earlier work
lillies = conditions: addition of acetosyringone; cited from earlier work
[1] = system: P898012 sorghum immature embryos; experiment: Phenolic compound production by infected, cultured sorghum immature embryos (visual exudates); type: cell-based; conditions: infected and cultured immature zygotic embryos of sorghum (FIG. 3)
Experimental: Transformation was carried out in 6 distinctive but sequential phases. Freshly isolated embryos of P898012 or GS3 were mixed together or separated into 1.5 mL of medium 700 either lacking or containing […] acetosyringone. The concentration of A. tumefaciens harbouring the vector PHP15303 (FIG. 5) in the suspension was adjusted to 0.857×10^9 cfu/mL [Optical Density (OD) approximately 0.6 at 550 nm]. The infection suspension was vortexed gently for 15 seconds, poured into 1 cm-diameter microplates and vacuumed for 5 minutes with gentle rocking for mixing. • 2. The Agrobacterium suspension was then aspirated and the embryos plated on co-cultivation medium 710B either lacking or containing […] acetosyringone for 3 days (co-cultivation) and cultured in the dark at 25° C. • 3. […]
Cultured immature zygotic embryos of the sorghum genotype P898012 produce phenolic compounds which can be visually identified as black/dark brown exudates within the proximity of the embryos on tissue culture medium (FIG. 2 (I) and FIG. 1 (J)). When these immature embryos are infected with A. tumefaciens, higher quantities of these phenolic compounds are produced, especially when the medium on which the embryos are cultured is not supplemented with the synthetic acetosyringone (contrast FIGS. 2 (A & B) vs. FIGS. 2 (D & E)).

sorghum = conditions: acetosyringone alone used to induce vir gene expression; cited from earlier work

SMILES: COc1cc(C(C)=O)cc(OC)c1O [acetosyringone, 4-acetyl-2,6-dimethoxyphenol]
- T-DNA transfer and transformation efficiency (wheat): higher levels of T-DNA transfer and transformation efficiency
- effect on transformation efficiency (lillies): does not have any effect on transformation efficiency
- effect on production of phenolic compounds [1]: depresses the production of phenolic compounds
- Agrobacterium transformation efficiency (sorghum): very low
